The results in this text go back to patent US20090318424A1, “NOVEL COMPOUNDS” (priority 2006, published 2009).

The test system of the first data set is influx of neutrophils to the lung in LPS-challenged rats. As to the kind of experiment: Rat LPS neutrophilia model. Format: in vivo. The settings on record: LPS aerosol 100 ug/ml 15 min, lavage 4 hours later; in at least one of the range of conditions tested. As to the method: The effect of compounds on the influx of neutrophils to the lung in LPS-challenged rats is evaluated as follows. The test compound is suspended in one of the following solutions: 0.5% tween 80/PBS, 0.5% tween 80/saline, 10% EtOH/saline (with pH adjusted to 2.0, or 8.0 with HCl, or unadjusted), Saline @ pH 2.0, 6.5 or 8.0, 0.5% Tragacanth, 1% DMSO/20% Encapsin/Saline, or acidified 5% Tragacanth. The suspension process may be aided by the use of a glass homogenizer. For intratracheal administration, the animals are anesthetized with inhaled isoflurane and placed in a supine position, the trachea is intubated with a steel gavage needle (1.5 inch, 22 gauge, small ball) or a Penn-Century Microsprayer Aerosolizer (model IA-IB) and 200 ul of dosing solution is delivered. The animals are visually monitored during the recovery process, which typically occurs within two minutes.
Rats treated with compound or vehicle (15 min-24 hours pretreatment) are exposed to an LPS aerosol (100 ug/ml) for 15 min. Four hours later the rats are euthanized with pentobarbital (100 mg/kg, i.p.) and the airways are lavaged with 5 washes of 5 ml of phosphate buffered saline. The harvested cells are stained (Diffquick) and counted to determine total and differential cell data. In a typical study, macrophages represent 40-70% of the total cells, and polymorphonuclear cells 30-60% of the total cells. Inhibition of neutrophil levels relative to no compound controls is calculated based on the differential counts.
The assay has varying conditions, such as concentration, pretreat time, form of the compound (crystalline, amorphous, salts, micronised), and a wet or dry application of the compound. The data is obtained as % inhibition using a particular concentration and pretreat time.
Regarding `Cc1ccc(C(=O)Nc2ccc(F)cc2)cc1-c1nc(N2CCC(N3CCCCC3)CC2)nc2c1CNC(=O)N2c1c(F)cccc1F` [87(b), 3-[2-(1,4′-bipiperidin-1′-yl)-8-(2,6-difluorophenyl)-7-oxo-5,6,7,8-tetrahydropyrimido[4,5-d]pyrimidin-4-yl]-N-(4-fluorophenyl)-4-methylbenzamide], the inhibition of neutrophilia entry is “statistically nonsignificant inhibition”.
Still for that read-out and setting: the same measure for `CSc1nc(-c2cc(NC(=O)c3ccc(C)c(F)c3)ccc2C)c2c(n1)N(c1c(F)cccc1F)C(=O)NC2` [23(c), N-{3-[8-(2,6-difluorophenyl)-2-(methylthio)-7-oxo-5,6,7,8-tetrahydropyrimido[4,5-d]pyrimidin-4-yl]-4-methylphenyl}-3-fluoro-4-methylbenzamide]: “inactive”.
Take `CCc1ccc(C(=O)Nc2nccs2)cc1-c1nc(NCCN(C)C)nc2c1CNC(=O)N2c1c(F)cccc1F` [Example 144, 3-(8-(2,6-difluorophenyl)-2-{[2-(dimethylamino)ethyl]amino}-7-oxo-5,6,7,8-tetrahydropyrimido[4,5-d]pyrimidin-4-yl)-4-ethyl-N-1,3-thiazol-2-ylbenzamide Trilfluoroacetate]: the inhibition of neutrophilia entry is on record as “statistically significant inhibition”.
As for `Cc1ccc(C(=O)NC(C)C)cc1-c1nc(NC2CCN(Cc3ccccc3)CC2)nc2c1CNC(=O)N2c1c(F)cccc1F` [Example 200, 3-(8-(2,6-difluorophenyl)-7-oxo-2-{[1-(phenylmethyl)-4-piperidinyl]amino}-5,6,7,8-tetrahydropyrimido[4,5-d]pyrimidin-4-yl)-4-methyl-N-(1-methylethyl)benzamide], the inhibition of neutrophilia entry is on record as “statistically significant inhibition”.
As to `Cc1ccc(C(=O)Nc2ccc(F)cc2)cc1-c1nc(N(C)CCCN(C)C)nc2c1CNC(=O)N2c1c(F)cccc1F` [Example 9, 3-{8-(2,6-difluorophenyl)-2-[[3-(dimethylamino)-propyl](methyl)amino]-7-oxo-5,6,7,8-tetrahydropyrimido[4,5-d]pyrimidin-4-yl}-N-(4-fluorophenyl)-4-methylbenzamide], the inhibition of neutrophilia result is recorded as “statistically nonsignificant inhibition”.
Turning to `Cc1ccc(C(=O)Nc2nccs2)cc1-c1nc(N(C)CCCN(C)C)nc2c1CNC(=O)N2c1c(F)cccc1F` [Example 124, 3-{8-(2,6-difluorophenyl)-2-[[3-(dimethylamino)propyl](methyl)amino]-7-oxo-5,6,7,8-tetrahydropyrimido[4,5-d]pyrimidin-4-yl}-4-methyl-N-1,3-thiazol-2-ylbenzamide], the inhibition of neutrophilia entry was “statistically nonsignificant inhibition”.
`Cc1ccc(C(=O)Nc2nccs2)cc1-c1nc(NC[C@H](C)O)nc2c1CNC(=O)N2c1c(F)cccc1F` [Example 134, 3-(8-(2,6-difluorophenyl)-2-{[(2S)-2-hydroxypropyl]amino}-7-oxo-5,6,7,8-tetrahydropyrimido[4,5-d]pyrimidin-4-yl)-4-methyl-N-1,3-thiazol-2-ylbenzamide]: the inhibition of neutrophilia entry is reported as “statistically nonsignificant inhibition”.
The same measure, in the same setting: the same measure for `CN(C)CCNc1nc(-c2cccc(C(=O)Nc3ccccc3)c2)c2c(n1)N(c1c(F)cccc1F)C(=O)NC2` [Example 91, 3-(8-(2,6-difluorophenyl)-2-{[2-(dimethylamino)ethyl]amino}-7-oxo-5,6,7,8-tetrahydropyrimido[4,5-d]pyrimidin-4-yl)-N-phenylbenzamide]: “statistically significant inhibition”.
Regarding `Cc1ccc(C(=O)NC(C)C)cc1-c1nc(N(C)CCCN(C)C)nc2c1CNC(=O)N2c1c(F)cccc1F` [34(d), 3-{8-(2,6-difluorophenyl)-2-[[3-(dimethylamino)propyl](methyl)amino]-7-oxo-5,6,7,8-tetrahydropyrimido[4,5-d]pyrimidin-4-yl}-4-methyl-N-(1-methylethyl)benzamide], the inhibition of neutrophilia result was “statistically nonsignificant inhibition”.
For the compound `Cc1ccc(C(=O)NC(C)C)cc1-c1nc(NCCCN(C)C)nc2c1CNC(=O)N2c1c(F)cccc1F` [Example 40, 3-(8-(2,6-difluorophenyl)-2-{[3-(dimethylamino)propyl]amino}-7-oxo-5,6,7,8-tetrahydropyrimido[4,5-d]pyrimidin-4-yl)-4-methyl-N-(1-methylethyl)benzamide], the inhibition of neutrophilia result is recorded as “statistically significant inhibition”.
Take `Cc1ccc(C(=O)NC(C)C)cc1-c1nc(N2CCC(N3CCCCC3)CC2)nc2c1CNC(=O)N2c1c(F)cccc1F` [Example 57, 3-[2-(1,4′-bipiperidin-1′-yl)-8-(2,6-difluorophenyl)-7-oxo-5,6,7,8-tetrahydropyrimido[4,5-d]pyrimidin-4-yl]-4-methyl-N-(1-methylethyl)benzamide]: the inhibition of neutrophilia entry was “statistically nonsignificant inhibition”.
`Cc1ccc(C(=O)NC(C)C)cc1-c1nc(NCCN(C)C)nc2c1CNC(=O)N2c1c(F)cccc1F` [Example 37, 3-(8-(2,6-difluorophenyl)-2-{[2-(dimethylamino)ethyl]amino}-7-oxo-5,6,7,8-tetrahydropyrimido[4,5-d]pyrimidin-4-yl)-4-methyl-N-(1-methylethyl)benzamide]: the inhibition of neutrophilia result was “statistically nonsignificant inhibition”.
As to `Cc1ccc(C(=O)Nc2ccc(F)cc2)cc1-c1nc(N2CCC(N3CCCC3)CC2)nc2c1CNC(=O)N2c1c(F)cccc1F` [86(c), 3-{8-(2,6-difluorophenyl)-7-oxo-2-[4-(1-pyrrolidinyl)-1-piperidinyl]-5,6,7,8-tetrahydropyrimido[4,5-d]pyrimidin-4-yl}-N-(4-fluorophenyl)-4-methylbenzamide], the inhibition of neutrophilia entry is reported as “statistically nonsignificant inhibition”.
On the same count and under the same terms, the same measure for `Cc1ccc(C(=O)Nc2ccc(F)cc2)cc1-c1nc(NCCN(C)C)nc2c1CNC(=O)N2c1c(F)cccc1F` [8(c), 3-(8-(2,6-difluorophenyl)-2-{[2-(dimethylamino)ethyl]amino}-7-oxo-5,6,7,8-tetrahydropyrimido[4,5-d]pyrimidin-4-yl)-N-(4-fluorophenyl)-4-methylbenzamide]: “statistically significant inhibition”.
On to `COc1ccc(NC(=O)c2ccc(C)c(-c3nc(NCCN(C)C)nc4c3CNC(=O)N4c3c(F)cccc3F)c2)cn1` [Example 140, 3-(8-(2,6-difluorophenyl)-2-{[2-(dimethylamino)ethyl]amino}-7-oxo-5,6,7,8-tetrahydropyrimido[4,5-d]pyrimidin-4-yl)-4-methyl-N-[6-(methyloxy)-3-pyridinyl]benzamide], for which the inhibition of neutrophilia entry was “statistically significant inhibition”.
Same read-out and setting: the same measure for `CSc1nc(-c2cc(NC(=O)c3ccsc3)ccc2C)c2c(n1)N(c1c(F)cccc1F)C(=O)NC2` [7(c), N-{3-[8-(2,6-Difluorophenyl)-2-(methylthio)-7-oxo-5,6,7,8-tetrahydropyrimido[4,5-d]pyrimidin-4-yl]-4-methylphenyl}-3-thiophenecarboxamide]: “inactive”.

System in the next data set: not given
Test: not given
Conditions: not given
What is called melting point is the temperature, or range, at which the solid turns liquid. The compound `Cc1ccc(C(=O)N(C)C)cc1-c1nc(NC2CCN(C)CC2)nc2c1CNC(=O)N2c1c(F)cccc1F` [Example 155, 3-{8-(2,6-difluorophenyl)-2-[(1-methyl-4-piperidinyl)amino]-7-oxo-5,6,7,8-tetrahydropyrimido[4,5-d]pyrimidin-4-yl}-N,N,4-trimethylbenzamide] had a melting point of 163 to 165 °C.
On the same count and under the same terms, the same measure for `Cc1ccc(C(=O)NCc2ccccc2)cc1-c1nc(N2CCC(N(C)C(=O)OC(C)(C)C)CC2)nc2c1CNC(=O)N2c1c(F)cccc1F` [Example 147, 1,1-dimethylethyl {-[8-(2,6-difluorophenyl)-4-(2-methyl-5-{[(phenylmethyl)amino]carbonyl}phenyl)-7-oxo-5,6,7,8-tetrahydropyrimido[4,5-d]pyrimidin-2-yl]-4-piperidinyl}methylcarbamate]: 146 to 150 °C (dec.); for `Cc1ccc(C(=O)NCc2ccccc2)cc1-c1nc(N2CCC(N)CC2)nc2c1CNC(=O)N2c1c(F)cccc1F` [15(c), 3-[2-(4-Amino-1-piperidinyl)-8-(2,6-difluorophenyl)-7-oxo-5,6,7,8-tetrahydropyrimido[4,5-d]pyrimidin-4-yl]-4-methyl-N-(phenylmethyl)benzamide]: 210 to 266 °C (dec.); for `Cc1ccc(C(=O)NCc2ccccc2)cc1-c1nc(NC2CCNCC2)nc2c1CNC(=O)N2c1c(F)cccc1F` [21(b), 3-[8-(2,6-Difluorophenyl)-7-oxo-2-(4-piperidinylamino)-5,6,7,8-tetrahydropyrimido[4,5-d]pyrimidin-4-yl]-4-methyl-N-(phenylmethyl)benzamide]: 172 to 176 °C (dec.).
In the case of `CNC(=O)c1ccc(C)c(-c2nc(NCCN(C)C)nc3c2CNC(=O)N3c2c(F)cccc2F)c1` [Example 163(c), 3-(8-(2,6-difluorophenyl)-2-{[2-(dimethylamino)ethyl]amino}-7-oxo-5,6,7,8-tetrahydropyrimido[4,5-d]pyrimidin-4-yl)-N,4-dimethylbenzamide], the melting point was 155 to 158 °C (dec.).
